From paper PMC9090415, “Discovery of small molecule inhibitors of Plasmodium falciparum apicoplast DNA polymerase” (Journal of Enzyme Inhibition and Medicinal Chemistry, 2022)

Molecular target: P. falciparum apicoplast DNA polymerase (Pf-apPOL) (Plasmodium falciparum, UniProt Q8ILY1)
Assay: Fluorescence-based high-throughput DNA polymerase assay (molecular beacon), primary screen and dose-response;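 on % inhibition ApPOL 90': test concentration in µM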;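 on % inhibition Apol 40': compound concentration given in µM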;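 on % inhibition apPOL 180': test concentration in µM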
Type: biochemical
Details: for DNA Pol: 90 min, 10 µM
How it was run: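 Single-point screening used 10 µM compound with 20 nM polymerase, 20 nM hairpin substrate and 6 µM dNTPs for 90 min at 25 °C. Confirmatory titrations (2.5–80 µM) followed fluorescence at three times, and IC50 was derived from a fit including a cooperativity term n.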

[1] = 'DNA Pol' of the 186 hits list (primary screen value)

P. falciparum apicoplast DNA polymerase (Pf-apPOL), sequence (Q8ILY1 entry or part of it): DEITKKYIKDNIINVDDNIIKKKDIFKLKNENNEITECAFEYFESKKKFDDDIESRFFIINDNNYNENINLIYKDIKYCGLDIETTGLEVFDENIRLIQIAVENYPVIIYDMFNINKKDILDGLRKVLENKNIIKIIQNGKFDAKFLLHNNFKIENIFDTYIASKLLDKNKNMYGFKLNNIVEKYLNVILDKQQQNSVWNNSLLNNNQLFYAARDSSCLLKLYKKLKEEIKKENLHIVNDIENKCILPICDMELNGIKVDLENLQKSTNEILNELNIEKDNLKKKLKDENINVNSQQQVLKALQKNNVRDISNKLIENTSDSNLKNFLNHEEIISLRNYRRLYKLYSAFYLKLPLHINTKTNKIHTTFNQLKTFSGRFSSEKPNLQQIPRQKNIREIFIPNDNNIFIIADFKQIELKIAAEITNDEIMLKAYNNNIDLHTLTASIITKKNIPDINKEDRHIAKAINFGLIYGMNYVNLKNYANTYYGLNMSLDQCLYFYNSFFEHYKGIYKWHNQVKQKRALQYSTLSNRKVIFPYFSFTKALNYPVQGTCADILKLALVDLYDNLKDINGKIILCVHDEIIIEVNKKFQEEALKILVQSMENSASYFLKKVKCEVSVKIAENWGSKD

O=C(Cc1cc(=O)[nH]c(SCc2ccccc2)n1)Nc1ccc2c(c1)OCO2 [Molecule 46, O=C(Cc1cc(=O)[nH]c(n1)SCc1ccccc1)Nc1ccc2c(c1)OCO2]
DNA Pol ("DNA Pol" of the 186 hits list (screen value)): 35
% inhibition Apo pol 10' (DRC-1, concentration 2.5): -0.9773%
% inhibition Apo pol 10' (DRC-1, concentration 5): 2.643%
% inhibition Apo pol 10' (DRC-1, concentration 10): 32.2663%
% inhibition Apo pol 10' (DRC-1, concentration 20): 58.1636%
% inhibition Apo pol 10' (DRC-1, concentration 40): 83.7049%
% inhibition Apo pol 10' (DRC-1, concentration 80): 86.7652%
% inhibition Apol 90' (DRC-1, concentration 2.5): -4.834%
% inhibition Apol 90' (DRC-1, concentration 5): -3.621%
% inhibition Apol 90' (DRC-1, concentration 10): 17.8668%
% inhibition Apol 90' (DRC-1, concentration 20): 43.05%
% inhibition Apol 90' (DRC-1, concentration 40): 73.6983%
% inhibition Apol 90' (DRC-1, concentration 80): 82.3218%
% inhibition apPOL 180' (DRC-1, concentration 2.5): -11.1217%
% inhibition apPOL 180' (DRC-1, concentration 5): -9.027%
% inhibition apPOL 180' (DRC-1, concentration 10): 5.286%
% inhibition apPOL 180' (DRC-1, concentration 20): 25.3173%
% inhibition apPOL 180' (DRC-1, concentration 40): 61.8193%
% inhibition apPOL 180' (DRC-1, concentration 80): 77.2818%
% inhibition Apo pol 5' (DRC-2, concentration 2.5): -0.743%
% inhibition Apo pol 5' (DRC-2, concentration 5): -0.197%
% inhibition Apo pol 5' (DRC-2, concentration 10): 23%
% inhibition Apo pol 5' (DRC-2, concentration 20): 29%
% inhibition Apo pol 5' (DRC-2, concentration 40): 27%
% inhibition Apo pol 5' (DRC-2, concentration 80): 20%
% inhibition Apol 40' (DRC-2, concentration 2.5): -1%
% inhibition Apol 40' (DRC-2, concentration 5): 0.92%
% inhibition Apol 40' (DRC-2, concentration 10): 30%
% inhibition Apol 40' (DRC-2, concentration 20): 47%
% inhibition Apol 40' (DRC-2, concentration 40): 55%
% inhibition Apol 40' (DRC-2, concentration 80): 53%
% inhibition ApPOL 90' (DRC-2, concentration 2.5): -1%
% inhibition ApPOL 90' (DRC-2, concentration 5): -0.186%
% inhibition ApPOL 90' (DRC-2, concentration 10): 27%
% inhibition ApPOL 90' (DRC-2, concentration 20): 49%
% inhibition ApPOL 90' (DRC-2, concentration 40): 60%
% inhibition ApPOL 90' (DRC-2, concentration 80): 61%
% inhibition apPOL 180' (DRC-2, concentration 2.5): -5.33%
% inhibition apPOL 180' (DRC-2, concentration 5): -9%
% inhibition apPOL 180' (DRC-2, concentration 10): 17%
% inhibition apPOL 180' (DRC-2, concentration 20): 41%
% inhibition apPOL 180' (DRC-2, concentration 40): 62%
% inhibition apPOL 180' (DRC-2, concentration 80): 67%
DNA Pol (primary screen value, DNA Pol): 35

CC(C)(C)OC(=O)COc1ccc2cc(-c3ccccc3)c(=O)oc2c1 [Molecule 81, O=C(OC(C)(C)C)COc1ccc2c(c1)oc(=O)c(c2)c1ccccc1]
DNA Pol [1]: 44
DNA Pol (DNA Pol (primary screen value)): 44
% inhibition Apo pol 10' (DRC-1, concentration 2.5): -2.0657%
% inhibition Apo pol 10' (DRC-1, concentration 5): -5.666%
% inhibition Apo pol 10' (DRC-1, concentration 10): 3.988%
% inhibition Apo pol 10' (DRC-1, concentration 20): 8.332%
% inhibition Apo pol 10' (DRC-1, concentration 40): 16.7579%
% inhibition Apo pol 10' (DRC-1, concentration 80): 23.4286%
% inhibition Apol 90' (DRC-1, concentration 2.5): 2.03%
% inhibition Apol 90' (DRC-1, concentration 5): 3.443%
% inhibition Apol 90' (DRC-1, concentration 10): 16.0875%
% inhibition Apol 90' (DRC-1, concentration 20): 22.5271%
% inhibition Apol 90' (DRC-1, concentration 40): 30.9519%
% inhibition Apol 90' (DRC-1, concentration 80): 41.1721%
% inhibition apPOL 180' (DRC-1, concentration 2.5): 5.717%
% inhibition apPOL 180' (DRC-1, concentration 5): 14.8656%
% inhibition apPOL 180' (DRC-1, concentration 10): 30.2199%
% inhibition apPOL 180' (DRC-1, concentration 20): 41.9896%
% inhibition apPOL 180' (DRC-1, concentration 40): 50.3603%
% inhibition apPOL 180' (DRC-1, concentration 80): 64.7026%
% inhibition Apo pol 5' (DRC-2, concentration 2.5): 8%
% inhibition Apo pol 5' (DRC-2, concentration 5): 10%
% inhibition Apo pol 5' (DRC-2, concentration 10): 23%
% inhibition Apo pol 5' (DRC-2, concentration 20): 28%
% inhibition Apo pol 5' (DRC-2, concentration 40): 36%
% inhibition Apo pol 5' (DRC-2, concentration 80): 44%
% inhibition Apol 40' (DRC-2, concentration 2.5): 5.4%
% inhibition Apol 40' (DRC-2, concentration 5): -3%
% inhibition Apol 40' (DRC-2, concentration 10): 19%
% inhibition Apol 40' (DRC-2, concentration 20): 25%
% inhibition Apol 40' (DRC-2, concentration 40): 33%
% inhibition Apol 40' (DRC-2, concentration 80): 44%
% inhibition ApPOL 90' (DRC-2, concentration 2.5): 3.57%
% inhibition ApPOL 90' (DRC-2, concentration 5): -14%
% inhibition ApPOL 90' (DRC-2, concentration 10): 13%
% inhibition ApPOL 90' (DRC-2, concentration 20): 18%
% inhibition ApPOL 90' (DRC-2, concentration 40): 27%
% inhibition ApPOL 90' (DRC-2, concentration 80): 38%
% inhibition apPOL 180' (DRC-2, concentration 2.5): -1.44%
% inhibition apPOL 180' (DRC-2, concentration 5): -93%
% inhibition apPOL 180' (DRC-2, concentration 10): 1.59%
% inhibition apPOL 180' (DRC-2, concentration 20): 2.69%
% inhibition apPOL 180' (DRC-2, concentration 40): 13%
% inhibition apPOL 180' (DRC-2, concentration 80): 23%

CCC(C)NC(=O)c1cc(NC(C)=O)cc2nc(C)ccc12 (stereo not drawn) [KU0206314]
DNA Pol [1]: 24
DNA Pol (DNA Pol (primary screen value)): 24
% inhibition Apo pol 10' (DRC-1, concentration 2.5): 2.024%
% inhibition Apo pol 10' (DRC-1, concentration 5): 11.6857%
% inhibition Apo pol 10' (DRC-1, concentration 10): 27.7087%
% inhibition Apo pol 10' (DRC-1, concentration 20): 37.1675%
% inhibition Apo pol 10' (DRC-1, concentration 40): 74.587%
% inhibition Apo pol 10' (DRC-1, concentration 80): 89.0945%
% inhibition Apol 90' (DRC-1, concentration 2.5): -1.658%
% inhibition Apol 90' (DRC-1, concentration 5): 3.672%
% inhibition Apol 90' (DRC-1, concentration 10): 15.6061%
% inhibition Apol 90' (DRC-1, concentration 20): 20.1807%
% inhibition Apol 90' (DRC-1, concentration 40): 54.0066%
% inhibition Apol 90' (DRC-1, concentration 80): 77.404%
% inhibition apPOL 180' (DRC-1, concentration 2.5): -4.723%
% inhibition apPOL 180' (DRC-1, concentration 5): -1.48%
% inhibition apPOL 180' (DRC-1, concentration 10): 7.7142%
% inhibition apPOL 180' (DRC-1, concentration 20): 9.245%
% inhibition apPOL 180' (DRC-1, concentration 40): 37.6309%
% inhibition apPOL 180' (DRC-1, concentration 80): 66.384%
% inhibition Apo pol 5' (DRC-2, concentration 2.5): 10%
% inhibition Apo pol 5' (DRC-2, concentration 5): 11%
% inhibition Apo pol 5' (DRC-2, concentration 10): 29%
% inhibition Apo pol 5' (DRC-2, concentration 20): 42%
% inhibition Apo pol 5' (DRC-2, concentration 40): 49%
% inhibition Apo pol 5' (DRC-2, concentration 80): 53%
% inhibition Apol 40' (DRC-2, concentration 2.5): 7%
% inhibition Apol 40' (DRC-2, concentration 5): 7%
% inhibition Apol 40' (DRC-2, concentration 10): 25%
% inhibition Apol 40' (DRC-2, concentration 20): 40%
% inhibition Apol 40' (DRC-2, concentration 40): 58%
% inhibition Apol 40' (DRC-2, concentration 80): 70%
% inhibition ApPOL 90' (DRC-2, concentration 2.5): 5.39%
% inhibition ApPOL 90' (DRC-2, concentration 5): 6%
% inhibition ApPOL 90' (DRC-2, concentration 10): 21%
% inhibition ApPOL 90' (DRC-2, concentration 20): 35%
% inhibition ApPOL 90' (DRC-2, concentration 40): 57%
% inhibition ApPOL 90' (DRC-2, concentration 80): 73%
% inhibition apPOL 180' (DRC-2, concentration 2.5): 1.48%
% inhibition apPOL 180' (DRC-2, concentration 5): 0.928%
% inhibition apPOL 180' (DRC-2, concentration 10): 12%
% inhibition apPOL 180' (DRC-2, concentration 20): 23%
% inhibition apPOL 180' (DRC-2, concentration 40): 48%
% inhibition apPOL 180' (DRC-2, concentration 80): 72%
